Measured values as given in patent publication US9399649B2, “Compounds for treating spinal muscular atrophy” (PTC Therapeutics Inc., priority 2012, dated 2016).

Assays:
[1] = tested on: SMA Δ7 homozygous knockout mice; assay: Survival of neonatal Δ7 SMA mice; format: in vivo; settings: IP QD PND 3 to PND 23, then orally BID from PND 24 until study end, FIG. 15
Procedure: The change in the number of surviving mice over time is used to determine whether treatment with a test compound improves survival.
SMA Δ7 homozygous knockout mice are dosed intraperitoneally (IP) with test compound or vehicle (100% DMSO) QD from PND 3 until the dose regimen is switched to an oral dose BID in 0.5% hydroxypropylmethyl cellulose (HPMC) with 0.1% Tween-80 at a dose 3.16-fold higher than the dose used for IP and later switched to an oral dose QD in 0.5% hydroxypropylmethyl cellulose (HPMC) with 0.1% Tween-80 at a dose 6.32-fold higher than the dose used for IP. The number of surviving mice in each group is recorded every day and plotted as a percent of total number of mice. Tissues of SMA Δ7 and age-matched heterozygous mice are collected for the measurement of Smn protein levels and processed as detailed in Example 10. The total protein normalized Smn protein levels measured in the tissues are plotted as a percent of those in the age-matched heterozygous mice tissues, with the Smn level in heterozygous mice set to 100 percent. The level of Smn protein in the test compound treated mice tissue relative to that in heterozygous mice tissue is indicated as a percent value above each bar in the graph.

[2] = tested on: gems (Smn-dependent nuclear speckles); assay: Gems count (Smn-dependent nuclear speckle count) assay; format: cell-based, human; settings: SMA Type 1 patient cells, 48 hour, FIG. 9
Source text: The level of Smn protein directly correlates with the amount of nuclear foci, also known as gems, produced upon staining the cell with a fluorescently labeled anti-Smn antibody (Liu and Dreyfuss, EMBO J., 1996, 15:3555). Gems are multi-protein complexes whose formation is nucleated by the Smn protein and the gems count assay is used to evaluate the level of Smn protein in the cell. As described herein, the gems count assay is used to quantify the level of Smn protein in SMA patient fibroblast cells treated with a test compound.
Cells are thawed and incubated in DMEM-10% FBS for 72 hours, then trypsinized, counted and resuspended to 100,000 cells/mL in DMEM-10% FBS. 2 mL of the cell suspension is plated in a 6-well cell culture plate with a sterile cover slip and incubated for 3 to 5 hours. Test compounds are serially diluted 3.16-fold in 100% DMSO to generate a 7-point dilution curve. […]
Cell culture medium is aspirated from the wells containing cover slips and gently washed three times with cold PBS. […] The number of gems is counted per ≧150 nuclei and % activation is calculated using DMSO and 10 nM bortezomib as controls. For each test compound, the cells are examined at all wavelengths to identify test compounds with inherent fluorescence.

[3] = tested on: full length and Δ7 SMN2 mRNA; assay: Endogenous SMN2 mRNA end-point semi-quantitative RT-PCR splicing assay in cultured cells; format: cell-based, human; settings: Type 1 SMA patient fibroblasts (GM03813), increasing concentrations, 24 hr, FIG. 5
Procedure: The endpoint reverse transcription-PCR splicing assay is used to visualize and quantify the levels of the full length and Δ7 SMN2 mRNA in primary cells and cell lines containing the SMN2 gene treated with a test compound.
GM03813 SMA patient cells (5,000 cells/well) are seeded in 200 μL of cell culture medium (DMEM plus 10% FBS) in 96-well flat-bottom plates and the plate is immediately swirled to ensure proper dispersal of cells, forming an even monolayer of cells. Cells are allowed to attach for at least 4-6 hrs. Test compounds are serially diluted 3.16-fold in 100% DMSO to generate a 7-point concentration curve. A solution of test compound (1 μL, 200× in DMSO) is added to each test well and 1 μL DMSO is added to each control well. The plate is incubated for 24 hrs in a cell culture incubator (37° C., 5% CO2, 100% relative humidity). The cells are then lysed in Cells-To-Ct lysis buffer and the lysate is stored at 80° C.
SMN FL and Δ7 mRNA are identified using the following primers in Table 6. These primers hybridize to a nucleotide sequence in exon 6 (SMN Forward C, SEQ ID NO. 11) (nucleotide 43 to nucleotide 63) and exon 8 (SMN Reverse C, SEQ ID NO. 12) (nucleotide 51 to nucleotide 73) common to human SMN1 and SMN2 mRNA. Since the SMA patient cells used in Example 4 contain only the SMN2 gene, RT-PCR can visualize and quantify only SMN2 full-length and SMN2 Δ7 mRNA.
To synthesize cDNA, 5 μL of lysate, 4 μL of 5× iScript reaction mix, 1 μL of reverse transcriptase, and 10 μL of water are combined and incubated 5 min at 25° C. followed by 30 min at 42° C., followed by 5 min at 85° C. The cDNA solution is stored at −20° C.
To perform endpoint PCR, 5 μL of cDNA, 0.2 μL of 100 μM forward primer, 0.2 μL of 100 μM reverse primer, and 22.5 μL of polymerase super mix are combined in a 96 well semiskirted PCR plate. PCR is carried out at the following temperatures for the indicated time: Step 1: 94° C. (2 min), Step 2: 94° C. (30 sec), Step 3: 55° C. (30 sec), Step 4: 68° C. (1 min), then repeat Steps 2 to 4 for a total of 33 cycles, then hold at 4° C.
10 μL of each PCR sample is electrophoretically separated on a 2% agarose E-gel for 14 minutes stained with double-stranded DNA (dsDNA) staining reagents (e.g., ethidium bromide) and visualized using a gel imager.

Cc1cn2cc(-c3cc4ccc(N5CCN(C)CC5)cc4c(=O)o3)nc2c(C)n1 [Cpd 65, 3-(6,8-dimethylimidazo[1,2-a]pyrazin-2-yl)-7-(4-methylpiperazin-1-yl)-1H-isochromen-1-one]
survival [1]: improved compared to vehicle treated mice
gems (nuclear speckle) count relative to DMSO [2]: progressively more gems
SMN2 FL mRNA (gel band) [3]: progressively more SMN2 FL mRNA
SMN2 Δ7 mRNA (gel band) [3]: less SMN2 Δ7 mRNA

Cc1cn2cc(-c3cc4ccc(N5CCN6CCC[C@H]6C5)cc4c(=O)o3)nc2c(C)n1 [Cpd 69, 3-(6,8-dimethylimidazo[1,2-a]pyrazin-2-yl)-7-[(8aS)-hexahydropyrrolo[1,2-a]pyrazin-2(1H)-yl]-1H-isochromen-1-one]
survival [1]: improved compared to vehicle treated mice
gems (nuclear speckle) count relative to DMSO [2]: progressively more gems
SMN2 FL mRNA (gel band) [3]: progressively more SMN2 FL mRNA
SMN2 Δ7 mRNA (gel band) [3]: less SMN2 Δ7 mRNA
